Several values for one entry are separate records, joined by “and”; a condition that tells them apart may be missing. Equal values may be shown once. Toxic doses and inconclusive results are not listed. How the source made its calls: active means survival T/C of 150% or more; inactive means T/C below 125% in these data.
Tested on: BDF1 mice, P388 leukemia ip, median survival T/C
Experiment: NCI In Vivo Anticancer Drug Screen. Data for tumor model P388 Leukemia (intraperitoneal) in B6D2F1 (BDF1) mice
Conditions: endpoint: median survival time, higher = longer survival
In short: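 Mice carrying the transplantable tumour receive compound or vehicle. Survival is followed in each arm, and the treated measure is divided by the vehicle measure.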

[1] = dose: 100.0 mg/kg/injection, schedule: Q04DX003 (ip), vehicle: saline with Tween-80
[2] = dose: 200.0 mg/kg/injection, schedule: Q04DX003 (ip), vehicle: saline with Tween-80
[3] = dose: 400.0 mg/kg/injection, schedule: Q04DX003 (ip), vehicle: saline with Tween-80
[4] = dose: 100.0 mg/kg/injection, schedule: Q04DX003 (ip), vehicle: Klucel (hydroxypropylcellulose) (HPC)
[5] = dose: 200.0 mg/kg/injection, schedule: Q04DX003 (ip), vehicle: Klucel (hydroxypropylcellulose) (HPC)
[6] = dose: 400.0 mg/kg/injection, schedule: Q04DX003 (ip), vehicle: Klucel (hydroxypropylcellulose) (HPC)
[7] = dose: 25.0 mg/kg/injection, schedule: Q04DX003 (ip), vehicle: saline
[8] = dose: 50.0 mg/kg/injection, schedule: Q01DX009 (ip), vehicle: saline with Tween-80
[9] = dose: 100.0 mg/kg/injection, schedule: Q01DX009 (ip), vehicle: saline with Tween-80
[10] = dose: 100.0 mg/kg/injection, schedule: Q01DX009 (ip), vehicle: Klucel (hydroxypropylcellulose) (HPC)
[11] = dose: 200.0 mg/kg/injection, schedule: Q01DX009 (ip), vehicle: Klucel (hydroxypropylcellulose) (HPC)

Measured: T/C

CC(=O)[O][Hg][c]1cc[c]([Hg][O]C(C)=O)s1
inactive: dose: 3.0 mg/kg/injection, schedule: Q01DX009 (ip), vehicle: Klucel (hydroxypropylcellulose) (HPC) 100 % of control | dose: 3.0 mg/kg/injection, schedule: Q04DX003 (ip), vehicle: Klucel (hydroxypropylcellulose) (HPC) 91 % of control | dose: 6.0 mg/kg/injection, schedule: Q01DX009 (ip), vehicle: Klucel (hydroxypropylcellulose) (HPC) 100 % of control | dose: 6.0 mg/kg/injection, schedule: Q04DX003 (ip), vehicle: Klucel (hydroxypropylcellulose) (HPC) 100 % of control | dose: 12.0 mg/kg/injection, schedule: Q01DX009 (ip), vehicle: Klucel (hydroxypropylcellulose) (HPC) 100 % of control | dose: 12.0 mg/kg/injection, schedule: Q04DX003 (ip), vehicle: Klucel (hydroxypropylcellulose) (HPC) 100 % of control

O=C(Nc1cc(C(F)(F)F)ccc1Cl)c1ccccc1Cl
inactive: [1] 100 % of control | [2] 104 % of control | [3] 113 % of control

COc1cc(O)c2c(c1)C1=C(C)C(C)(O)OC1=CC2=O (stereo unspecified)
inactive: dose: 100.0 mg/kg/injection, schedule: Q01DX001 (ip), vehicle: Klucel (hydroxypropylcellulose) (HPC) 95 % of control | dose: 200.0 mg/kg/injection, schedule: Q01DX001 (ip), vehicle: Klucel (hydroxypropylcellulose) (HPC) 100 % of control | dose: 400.0 mg/kg/injection, schedule: Q01DX001 (ip), vehicle: Klucel (hydroxypropylcellulose) (HPC) 86 % of control

CC(=O)Nc1ccc(Cl)cc1C(=O)O
inactive: [4] 91 % of control | [5] 95 % of control | [6] 100 % of control

CCCCCCCCCCCCCCCCCCCC/C=C/C1CC(=O)OC1=O (stereo unspecified)
inactive: dose: 75.0 mg/kg/injection, schedule: Q01DX009 (ip), vehicle: Klucel (hydroxypropylcellulose) (HPC) 95 % of control | [4] 100 % of control | dose: 150.0 mg/kg/injection, schedule: Q01DX009 (ip), vehicle: Klucel (hydroxypropylcellulose) (HPC) 95 % of control | [5] 87 % of control | dose: 300.0 mg/kg/injection, schedule: Q01DX009 (ip), vehicle: Klucel (hydroxypropylcellulose) (HPC) 86 % of control | [6] 87 % of control

c1ccc(Oc2c3ccccc3nc3ccccc23)cc1
inactive: dose: 50.0 mg/kg/injection, schedule: Q01DX005 (ip), vehicle: saline with Tween-80 123 % of control

CC#CC#C/C=C1\OC2(CCCCO2)C(OC(C)=O)C1OC(C)=O (stereo unspecified)
inactive: dose: 10.0 mg/kg/injection, schedule: Q01DX009 (ip), vehicle: Klucel (hydroxypropylcellulose) (HPC) 98 % of control | dose: 20.0 mg/kg/injection, schedule: Q01DX009 (ip), vehicle: Klucel (hydroxypropylcellulose) (HPC) 98 % of control | dose: 40.0 mg/kg/injection, schedule: Q01DX009 (ip), vehicle: Klucel (hydroxypropylcellulose) (HPC) 115 % of control

CC1=C(Cl)C(Cl)(Cl)C(=O)C(=O)C1(Cl)Cl
inactive: dose: 6.25 mg/kg/injection, schedule: Q01DX009 (ip), vehicle: other 100 % of control | dose: 12.5 mg/kg/injection, schedule: Q01DX009 (ip), vehicle: other 109 % of control | dose: 25.0 mg/kg/injection, schedule: Q01DX009 (ip), vehicle: other 113 % of control

C=CC[n+]1cccc2ccccc21
inactive: dose: 6.25 mg/kg/injection, schedule: Q04DX003 (ip), vehicle: saline 100 % of control | dose: 12.5 mg/kg/injection, schedule: Q01DX009 (ip), vehicle: Klucel (hydroxypropylcellulose) (HPC) 86 % of control | dose: 12.5 mg/kg/injection, schedule: Q04DX003 (ip), vehicle: saline 95 % of control | dose: 25.0 mg/kg/injection, schedule: Q01DX009 (ip), vehicle: Klucel (hydroxypropylcellulose) (HPC) 90 % of control | [7] 109 % of control

Nc1nc2ncc(CNc3ccc(C(=O)NC(CCC(=O)O)C(=O)O)cc3)nc2c(=O)[nH]1 (stereo unspecified)
inactive: dose: 12.5 mg/kg/injection, schedule: Q01DX009 (ip), vehicle: saline with Tween-80 100 % of control | dose: 25.0 mg/kg/injection, schedule: Q01DX009 (ip), vehicle: saline with Tween-80 106 % of control | [8] 107 % of control | dose: 50.0 mg/kg/injection, schedule: Q01DX010 (ip), vehicle: saline 100 % of control

C[N+]1(C)N=C([O-])N(c2ccccc2C(F)(F)F)C1=O
inactive: [8] 87 % of control | [9] 92 % of control

Cc1ccc(N2C(=O)CC(Sc3ccccc3N)C2=O)cc1 (stereo unspecified)
inactive: dose: 50.0 mg/kg/injection, schedule: Q01DX009 (ip), vehicle: Klucel (hydroxypropylcellulose) (HPC) 105 % of control | dose: 100.0 mg/kg/injection, schedule: Q01DX001 (ip), vehicle: saline 100 % of control | [10] 105 % of control | [4] 95 % of control | dose: 200.0 mg/kg/injection, schedule: Q01DX001 (ip), vehicle: saline 90 % of control | [11] 105 % of control | [5] 87 % of control | dose: 400.0 mg/kg/injection, schedule: Q01DX001 (ip), vehicle: saline 90 % of control

O=C(NC12CC3CC(CC(C3)C1)C2)Oc1ccccc1
inactive: [8] 102 % of control | [9] 102 % of control | dose: 200.0 mg/kg/injection, schedule: Q01DX009 (ip), vehicle: saline with Tween-80 93 % of control

NCCCC(NC(=O)CCCCCCCCN=C(N)N)C(O)CCCCCCCCN=C(N)N (stereo unspecified)
inactive: dose: 3.75 mg/kg/injection, schedule: Q01DX010 (ip), vehicle: saline 91 % of control

COc1ccc(C(Br)C(Br)C(=O)c2ccc3c(c2)OCO3)cc1OC (stereo unspecified)
inactive: [7] 104 % of control | dose: 50.0 mg/kg/injection, schedule: Q04DX003 (ip), vehicle: saline 90 % of control | dose: 100.0 mg/kg/injection, schedule: Q04DX003 (ip), vehicle: saline 113 % of control | dose: 200.0 mg/kg/injection, schedule: Q04DX003 (ip), vehicle: saline 97 % of control | dose: 400.0 mg/kg/injection, schedule: Q04DX003 (ip), vehicle: saline 90 % of control | dose: 600.0 mg/kg/injection, schedule: Q04DX003 (ip), vehicle: saline 119 % of control

O=c1c(O)c(-c2ccccc2)oc2ccccc12
inactive: [10] 95 % of control | [4] 91 % of control and 103 % of control | [11] 100 % of control | [5] 91 % of control and 92 % of control | dose: 400.0 mg/kg/injection, schedule: Q01DX009 (ip), vehicle: Klucel (hydroxypropylcellulose) (HPC) 108 % of control | [6] 95 % of control and 96 % of control

CCOc1ccccc1CC(=O)O
inactive: [1] 100 % of control | [2] 100 % of control | [3] 104 % of control

— PubChem BioAssay AID328 (DTP/NCI, 2004)
